Patent publication US20090221559A1 (priority 2005, published 2009)
Like-named read-outs stand apart in the source and are kept apart here.

Experiments:
[1] = target: T1, HCV NS5B polymerase (His-tagged, C-terminal 21 amino acid deleted NS5B, HC-J4) (Hepatitis C virus genotype 1b, UniProt O92972); assay: NS5b polymerase assay (biochemical RdRp assay, 3H-GTP incorporation, SPA beads); parameters: species or system HCV genotype 1b
T1 construct: The cDNA encoding NS5B amino acid 1-570 (HC-J4, genotype 1b); His tag (His6, from pET-21b) (C); made in house; host or cells: E. coli BL21 (DE3)
In short: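 3H-GTP incorporation into newly made RNA was captured on SPA beads added in EDTA after 2 h at 25 °C. Compounds in DMSO met preformed enzyme–template complex (200 nM truncated His-NS5B, HC-J4 1b; biotin-oligo(rG13)/poly(rC)) for 15 min at RT, then 600 nM GTP, 5 mM MgCl2, Tris pH 7.5 started polymerization.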

[2] = tested on: HCV replicon RNA replication in Huh-7 luc/neo (Huh-Luc) cells; assay: HCV replicon assay (stable replicon cell reporter assay, luciferase read-out); format: cell-based, HCV type 1b
In short: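 Three-day compound exposure used Huh-Luc cells, which harbour an autonomously replicating genotype 1b NS3-NS5B replicon expressing luciferase and neo^R. Luciferase signal served as the replication read-out, and dose-response curves came from several concentrations per compound.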

[3] = NS5B Polymerase Assay IC50, 200 nM enzyme, 3H-GTP incorporation, 2 h at 25° C.
[4] = Hepatitis C virus, Huh-7, 72 h, read-out: Replicon Assay EC50, Huh-Luc cells, three days incubation, luciferase activity
[5] = 200 nM enzyme, 3H-GTP incorporation, 2 h at 25° C., read-out: NS5B Polymerase Assay IC50
[6] = Huh-Luc cells, three days incubation, luciferase activity, read-out: Replicon Assay EC50
[7] = NS5B Polymerase Assay IC50 (μM)
[8] = Hepatitis C virus, Huh-7, 72 h, read-out: Replicon Assay EC50 (μM), Huh-Luc cells, incubation of three days, luciferase activity

T1 sequence (O92972 2417-3000, looked up, stated change not applied): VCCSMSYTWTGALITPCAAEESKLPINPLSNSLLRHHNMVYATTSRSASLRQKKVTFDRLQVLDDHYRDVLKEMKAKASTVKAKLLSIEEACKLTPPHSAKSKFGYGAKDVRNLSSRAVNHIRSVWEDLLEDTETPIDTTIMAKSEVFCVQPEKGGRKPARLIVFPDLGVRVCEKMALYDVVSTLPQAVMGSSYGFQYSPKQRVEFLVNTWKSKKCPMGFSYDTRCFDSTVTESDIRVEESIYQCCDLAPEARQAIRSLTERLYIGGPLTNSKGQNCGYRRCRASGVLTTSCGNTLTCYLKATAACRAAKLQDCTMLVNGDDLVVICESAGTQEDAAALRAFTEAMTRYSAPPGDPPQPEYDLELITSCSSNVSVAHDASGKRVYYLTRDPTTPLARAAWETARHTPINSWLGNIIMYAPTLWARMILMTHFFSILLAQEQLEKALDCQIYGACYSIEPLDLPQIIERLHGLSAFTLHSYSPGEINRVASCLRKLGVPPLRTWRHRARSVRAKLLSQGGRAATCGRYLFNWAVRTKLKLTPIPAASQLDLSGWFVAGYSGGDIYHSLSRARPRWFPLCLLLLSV

## CC(=O)N1c2ccccc2NC2=C(C(=O)CC(c3ccccc3OCc3ccccc3)C2)C1c1cccc(OC(=O)c2ccc(Cl)cc2)c1 (single isomer, unassigned) [compound 191, 10-Acetyl-3-(2-benzyloxyphenyl)-11-[3-(4-chlorobenzoyloxy)phenyl]-2,3,4,5,10,11-hexahydro-dibenzo[b,e][1,4]diazepin-1-one]
[1]; [3]
  IC50: > 42.7 µM
[2]; [4]
  EC50: 2.88 µM

## CCOc1ccc(C2C3=C(CC(C)(C)CC3=O)Nc3ccccc3N2C(=O)Cc2ccc(Cl)cc2)cc1 (centres unmarked) [compound 85]
[1]; [3]
  IC50: > 42.7 µM
[2]; [4]
  EC50: 21.4 µM

## CCC(=O)N1c2ccccc2NC2=C(C(=O)CC(c3ccco3)C2)C1c1cccc([N+](=O)[O-])c1 (centres unmarked) [compound 288]
[1]; [5]
  IC50: > 42.7 µM
[2]; [6]
  EC50: 25 µM

## CC(=O)N1c2ccccc2NC2=C(C(=O)CC(c3ccccc3F)C2)C1c1ccccc1 (centres unmarked) [compound 236]
[1]; [5]
  IC50: > 42.7 µM
[2]; [6]
  EC50: 11.8 µM

## CC1(C)CC(=O)C2=C(C1)Nc1ccccc1NC2/C(Cl)=C/c1ccccc1 (racemic) [compound 506, 11-(1-Chloro-2-phenylvinyl)-3,3-dimethyl-2,3,4,5,10,11-hexahydro-dibenzo[b,e][1,4]diazepin-1-one]
[1]; [7]
  IC50: > 42.7 µM
[2]; [8]
  EC50: 56.7 µM

## Cn1cccc1C1C2=C(CC(C)(C)CC2=O)Nc2ccccc2N1C(=O)C(F)(F)F (centres unmarked) [compound 260]
[1]; [3]
  IC50: > 42.7 µM
[2]; [4]
  EC50: 22.5 µM

## CN(C)c1ccc(C2C3=C(CC(C)(C)CC3=O)Nc3ccccc3N2C(=O)C(F)(F)F)cc1 (centres unmarked) [compound 108]
[1]; [3]
  IC50: > 42.7 µM
[2]; [4]
  EC50: > 32 µM

## Cc1ccc(C2Nc3ccccc3NC3=C2C(=O)CC(c2ccccc2)C3)cc1 (centres unmarked) [compound 344]
[1]; [7]
  IC50: > 42.7 µM
[2]; [8]
  EC50: 21.6 µM

## CCC(=O)N1c2ccccc2NC2=C(C(=O)CC(C)(C)C2)C1c1ccc(F)cc1 (centres unmarked) [compound 49]
[1]; [3]
  IC50: > 42.7 µM
[2]; [4]
  EC50: 11.2 µM

## CC1(C)CC(=O)C2=C(C1)Nc1ccc(C#N)cc1NC2c1ccc(Cl)cc1Cl (centres unmarked) [compound 473]
[1]; [7]
  IC50: 50 µM
[2]; [8]
  EC50: 20 µM

## CC(=O)N1c2ccccc2NC2=C(C(=O)CC(c3ccccc3)C2)C1c1ccc(C)cc1 (mixture of isomers) [compound 199]
[1]; [5]
  IC50: > 42.7 µM
[2]; [6]
  EC50: 11.5 µM

## O=C1C[C@@H](c2ccc3c(c2)OCO3)CC2=C1[C@H](c1cc3c(cc1Br)OCO3)Nc1ccccc1N2 [compound 493]
[1]; [7]
  IC50: > 42.7 µM
[2]; [8]
  EC50: 1.3 µM

## COc1ccc(C2CC(=O)C3=C(C2)Nc2ccccc2NC3c2cc(Br)c(OC)c(OC)c2)cc1 (centres unmarked) [compound 402]
[1]; [7]
  IC50: > 42.7 µM
[2]; [8]
  EC50: 8.59 µM

## CC(C)Oc1ccc(C2C3=C(CC(C)(C)CC3=O)Nc3ccccc3N2C(=O)C(F)(F)F)cc1 (centres unmarked) [compound 100]
[1]; [3]
  IC50: > 42.7 µM
[2]; [4]
  EC50: 3.6 µM

## CC(=O)N1c2ccccc2NC2=C(C(=O)CC(C)(C)C2)C1c1cc(Cl)ccc1Cl (centres unmarked) [compound 138, 10-acetyl-11-[2,5-dichlorophenyl]-3,3-dimethyl-2,3,4,5,10,11-hexahydro-1H-dibenzo[b,e][1,4]diazepin-1-one]
[1]; [3]
  IC50: > 133 µM
[2]; [4]
  EC50: 26.7 µM

## CC(=O)N1c2ccccc2NC2=C(C(=O)CC(C)(C)C2)C1c1ccccn1 (centres unmarked) [compound 281]
[1]; [3]
  IC50: > 42.7 µM
[2]; [4]
  EC50: > 32 µM

## CC1(C)CC(=O)C2=C(C1)Nc1ccccc1N(C(=O)Cc1ccccc1)C2c1cccc(O)c1 (centres unmarked) [compound 39]
[1]; [3]
  IC50: > 42.7 µM
[2]; [4]
  EC50: 7.42 µM

## CC(=O)N1c2ccccc2NC2=C(C(=O)CC(C)(C)C2)[C@@H]1c1ccc(OCc2ccccc2)cc1 (single isomer, unassigned) [compound 302]
[1]; [3]
  IC50: 92.5 µM
[2]; [4]
  EC50: 1.87 µM

## COc1ccc(C2C3=C(CC(C)(C)CC3=O)Nc3ccccc3N2C(C)=O)cc1OC (centres unmarked) [compound 119]
[1]; [3]
  IC50: > 42.7 µM
[2]; [4]
  EC50: > 32 µM

## COc1ccc(C2CC(=O)C3=C(C2)Nc2ccccc2NC3c2ccccc2Cl)cc1 (centres unmarked) [compound 383]
[1]; [7]
  IC50: > 42.7 µM
[2]; [8]
  EC50: 17.3 µM

## CC(=O)N1c2ccccc2NC2=C(C(=O)CC(C)(C)C2)C1c1ccc(-c2cccc(C(=O)O)c2)o1 (centres unmarked) [compound 280]
[1]; [3]
  IC50: > 42.7 µM
[2]; [4]
  EC50: > 32 µM

## CCCCOc1ccc(C2CC(=O)C3=C(C2)Nc2ccccc2N(C(=O)CC)C3c2ccccc2)cc1 (mixture of isomers) [compound 217]
[1]; [5]
  IC50: > 42.7 µM
[2]; [6]
  EC50: 20.3 µM

## COC(=O)CN1c2ccccc2NC2=C(C(=O)CC(C)(C)C2)C1c1ccc(Cl)cc1Cl (centres unmarked) [compound 510]
[1]; [7]
  IC50: > 133 µM
[2]; [8]
  EC50: 4.56 µM

## COc1ccc(C2C3=C(CC(C)(C)CC3=O)Nc3ccccc3N2C(=O)Cc2ccc(Cl)cc2)cc1 (centres unmarked) [compound 12]
[1]; [3]
  IC50: > 42.7 µM
[2]; [4]
  EC50: 3.11 µM

## CC(=O)N1c2ccccc2NC2=C(C(=O)CC(c3ccccc3OCc3ccccc3)C2)C1C(Br)=Cc1ccccc1 (mixture of isomers) [compound 299]
[1]; [3]
  IC50: > 133 µM
[2]; [4]
  EC50: 2.36 µM

## CC(C)CC(=O)N1c2ccccc2NC2=C(C(=O)CC(C)(C)C2)C1c1ccc(Cl)cc1 (centres unmarked) [compound 9]
[1]; [3]
  IC50: > 42.7 µM
[2]; [4]
  EC50: 3.61 µM

## CC1(C)CC(=O)C2=C(C1)Nc1ccccc1N(C(=O)c1ccccc1)C2c1cccs1 (centres unmarked) [compound 269]
[1]; [3]
  IC50: > 33.3 µM
[2]; [4]
  EC50: 19.6 µM

## O=C1CC(c2ccc(Cl)cc2)CC2=C1C(c1ccccc1OCc1ccccc1)Nc1ccccc1N2 (centres unmarked) [compound 366]
[1]; [7]
  IC50: > 42.7 µM
[2]; [8]
  EC50: 5.31 µM

## CC(C)C(=O)N1c2ccccc2NC2=C(C(=O)CC(C)(C)C2)C1c1ccc(OCc2ccccc2)cc1 (centres unmarked) [compound 99]
[1]; [3]
  IC50: > 42.7 µM
[2]; [4]
  EC50: 3.69 µM

## O=C1CC(c2ccc(Cl)cc2)CC2=C1C(c1cccc(Cl)c1)N(C(=O)c1ccccc1)c1ccccc1N2 (mixture of isomers) [compound 203]
[1]; [5]
  IC50: > 33.3 µM
[2]; [6]
  EC50: 9.94 µM

## COc1ccc(C2CC(=O)C3=C(C2)Nc2ccccc2NC3c2ccccc2C)cc1 (centres unmarked) [compound 381]
[1]; [7]
  IC50: > 42.7 µM
[2]; [8]
  EC50: 4.77 µM

## CC(=O)N1c2ccccc2NC2=C(C(=O)CC(C)(C)C2)[C@H]1c1ccc(OCc2ccccc2)cc1Cl (single isomer, unassigned) [compound 305]
[1]; [3]
  IC50: 0.035 µM
[2]; [4]
  EC50: 7.74 µM

## CCCCOc1ccc(C2C3=C(CC(C)(C)CC3=O)Nc3ccccc3N2C(=O)C(F)(F)F)cc1 (centres unmarked) [compound 115]
[1]; [3]
  IC50: > 42.7 µM
[2]; [4]
  EC50: 14.4 µM

## COc1ccc(C2C3=C(CC(C)(C)CC3=O)Nc3ccccc3N2C(=O)c2ccc(F)cc2)cc1 (centres unmarked) [compound 33]
[1]; [3]
  IC50: > 42.6 µM
[2]; [4]
  EC50: 24.7 µM

## COc1ccc(C2CC(=O)C3=C(C2)Nc2ccccc2N(C(C)=O)C3c2ccc(Cl)cc2)cc1 (centres unmarked) [compound 165]
[1]; [5]
  IC50: > 33.3 µM
[2]; [6]
  EC50: 18.6 µM

## COc1ccc(C2CC(=O)C3=C(C2)Nc2ccccc2NC3c2cc(Br)ccc2OC)cc1 (centres unmarked) [compound 335]
[1]; [7]
  IC50: > 42.7 µM
[2]; [8]
  EC50: 11.9 µM

## CC1(C)CC(=O)C2=C(C1)Nc1ccccc1N(C(=O)c1ccccc1)C2/C=C/c1ccccc1 (centres unmarked) [compound 264]
[1]; [5]
  IC50: > 42.7 µM
[2]; [6]
  EC50: 8.87 µM

## CC(=O)N1c2ccccc2NC2=C(C(=O)CC(C)(C)C2)C1c1ccc(Cl)cc1Cl (single isomer, unassigned) [compound 36, 10-Acetyl-11-(2,4-dichlorophenyl)-2,3,4,5,10,11-hexahydro-3,3-dimethyl-1H-dibenzo[b,e][1,4]diazepin-1-one]
[1]; [3]
  IC50: > 41.3 µM
[2]; [4]
  EC50: 17 µM

## CCCCC(CC)C(=O)N1c2ccccc2NC2=C(C(=O)CC(C)(C)C2)C1c1ccc(OCCC)c(OC)c1 (centres unmarked) [compound 98]
[1]; [3]
  IC50: > 42.7 µM
[2]; [4]
  EC50: 7.33 µM

## COc1ccc(C2CC(=O)C3=C(C2)Nc2ccccc2NC3c2ccc(C)cc2)cc1 (centres unmarked) [compound 384]
[1]; [7]
  IC50: 4.58 µM
[2]; [8]
  EC50: 15.9 µM
